# Values of other authors, collected in patent US20260209855A1, “COMPOSITIONS AND METHODS FOR DETECTION AND TREATMENT OF PROSTATE CANCER” (The Regents of the University of California, priority 2022, published 2026).
# Key:
# PCa = details: result in words
# [1] = test system: benign prostatic hyperplasia (BPH); details: patients with BPH and AI, treatment prior to BPH diagnosis; result in words
# PCa patients = details: clinical trials; result in words
molecule,measurement,setting,value
bevacizumab,Clinical trial results in the treatment of PCa,PCa,conflicting results
CN(Cc1cnc2nc(N)nc(N)c2n1)c1ccc(C(=O)N[C@@H](CCC(=O)O)C(=O)O)cc1 [methotrexate],Likelihood to develop BPH,[1],did not have this effect
"siltuximab (antibody, chains of the INN, looked up, V domains shown, An IL-6 antagonist tested in clinical trials in PCa patients) VH: EVQLVESGGKLLKPGGSLKLSCAASGFTFSSFAMSWFRQSPEKRLEWVAEISSGGSYTYYPDTVTGRFTISRDNAKNTLYLEMSSLRSEDTAMYYCARGLWGYYALDYWGQGTSVTVSS VL: QIVLIQSPAIMSASPGEKVTMTCSASSSVSYMYWYQQKPGSSPRLLIYDTSNLASGVPVRFSGSGSGTSYSLTISRMEAEDAATYYCQQWSGYPYTFGGGTKLEIK",Clinical efficacy in PCa patients,PCa patients,no clinical efficacy
